In patent US20230145822A1 (priority 2020, published 2023):
“Also recorded” adds a separate entry of the source. Where two headings read alike, the source gives them in different places.

Legend:
human PrP^C = human PrP^C (Homo sapiens, UniProt P04156); format: cell-based
EGFP-PrP^C = format: cell-based, mouse; conditions: 24 h, 3-10 μM
PrP^C mRNA [1] = format: cell-based, mouse
LC3II = format: cell-based
NEGR-1 = format: cell-based
mouse PrP^C mRNA = format: cell-based
PrP^C mRNA [2] = format: cell-based, human
PrP^C = PrP^C (Mus musculus, UniProt P04925); format: cell-based; conditions: 1-10 μM, 24 h, PNGase-F
PrP^C, sequence (P04925 23-254 limits assumed): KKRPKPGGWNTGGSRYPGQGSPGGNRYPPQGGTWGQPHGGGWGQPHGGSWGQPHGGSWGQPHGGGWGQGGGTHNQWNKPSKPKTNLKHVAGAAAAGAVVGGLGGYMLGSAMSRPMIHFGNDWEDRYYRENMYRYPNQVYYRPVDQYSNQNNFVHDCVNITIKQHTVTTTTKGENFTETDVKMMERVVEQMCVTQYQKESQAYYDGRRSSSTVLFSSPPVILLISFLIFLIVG

ZR-75 cells = conditions: human
RML prion strain = format: cell-based, mouse

CO/C1=C\C(C)=C\[C@@H](C)[C@@H](O)[C@@H](C)C/C(C)=C/C=C/[C@H](OC)[C@@H]([C@@H](C)[C@@H](O)[C@H](C)[C@@]2(O)C[C@@H](O)[C@H](C)[C@@H](C(C)C)O2)OC1=O [BAF, Bafilomycin A1, reference compound]
effect on SM875-induced decrease of PrP^C levels (human PrP^C): almost completely prevents

COc1cc(C2CC(=O)Nc3c2cnn3-c2ccc(I)cc2)ccc1O (stereo not shown) [GC6]
IC25 (human PrP^C): sub-micromolar | IC50 (human PrP^C): sub-micromolar | effect on PrP^C expression (human PrP^C): even more prominent activity in ZR-75 cells than in HEK293 cells

COc1cc(C2CC(=O)Nc3c2cnn3-c2ccc(Br)cc2)ccc1O (stereo not shown) [SM875]
cell surface EGFP-PrP^C (EGFP-PrP^C): drastic reduction | PrP^C mRNA levels (PrP^C mRNA [1]): does not decrease PrP^C mRNA levels | LC3II levels (LC3II): large increase; also recorded: much smaller increase | effect on control protein NEGR-1 (NEGR-1): did not produce any effect | cytotoxicity (HEK293 cells): evident cytotoxicity | estimated median lethal dose, LD50 (HEK293 cells; human): 4.6 µM | PrP^C mRNA levels (mouse PrP^C mRNA): does not decrease PrP^C mRNA levels | PrP^C mRNA levels (PrP^C mRNA [2]): does not decrease PrP^C mRNA levels | alpha-cleavage (C1 PrP) (PrP^C): dose-dependent increase of Cl PrP

COc1cc(C2CC(=O)Nc3c2cnn3-c2cccc(F)c2)ccc1O (stereo not shown) [SM898]
estimated median lethal dose, LD50 (HEK293 cells; human): 37.9 µM | reduction of cytotoxicity versus SM875 (HEK293 cells; human): ~3 times

OCC(O)Cn1c2ccc(Br)cc2c2cc(Br)ccc21 (stereo not shown) [SM930]
concentration from which human PrP^C expression is suppressed (human PrP^C): ≥ 3 µM | concentration inducing cell death (ZR-75 cells): 30 µM | concentration inducing cell death (HEK293 cells; human): 30 µM

Cc1ccccc1Cn1c(=O)c2c(nc3n(-c4ccccc4O)c(C)c(C)n23)n(C)c1=O [SM940]
concentration from which human PrP^C expression is suppressed (human PrP^C): ≥ 3 µM | concentration inducing cell death (ZR-75 cells): > 30 µM | concentration inducing cell death (HEK293 cells; human): > 30 µM | PrP^C mRNA levels (mouse PrP^C mRNA): do not suppress mouse PrP^C mRNA levels

COc1cc2c(cc1OC)CN(C(=O)c1cccc(Cl)c1)CC2 [SM950]
concentration from which human PrP^C expression is suppressed (human PrP^C): ≥ 1 µM | concentration inducing cell death (ZR-75 cells): 30 µM | concentration inducing cell death (HEK293 cells; human): ≥ 3 µM | PrP^C mRNA levels (mouse PrP^C mRNA): do not suppress mouse PrP^C mRNA levels

OC[C@H]1O[C@H](O[C@H]2O[C@H](CO)[C@@H](O)[C@H](O)[C@H]2O)[C@H](O)[C@@H](O)[C@@H]1O [trehalose, reference compound]
LC3II levels (LC3II): increased LC3-II levels

Fe(III)-TMPyP
prion levels (PK-resistant PrP) (RML prion strain): inhibits prion levels
